The record followed here is patent US20260001871A1, “TRIAZOLE DERIVATIVES AS MODULATORS OF MAS-RELATED G-PROTEIN RECEPTOR D” (ESCIENT PHARMACEUTICALS, INC., priority 2022, published 2026).

The target of the test is human MRGPRD (Homo sapiens, UniProt Q8TDS7). Description: MRGPRD antagonist activity, IP-One HTRF assay in CHO cells stably expressing human MRGPRD (versus 100 μM β-Alanine agonist). In kind it is cell-based. The procedure, abridged: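 CHO cells stably expressing human MRGPRD, plated overnight at 37 °C, were treated with antagonist plus agonist in Tris-HCl/NaCl/LiCl buffer pH 8, incubated 1 h at 37 °C then 1 h at room temperature. IP-1 accumulation read by HTRF; IC50 and percent antagonism of maximum efficacy averaged, SEM reported.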
human MRGPRD, sequence (Q8TDS7 whole entry): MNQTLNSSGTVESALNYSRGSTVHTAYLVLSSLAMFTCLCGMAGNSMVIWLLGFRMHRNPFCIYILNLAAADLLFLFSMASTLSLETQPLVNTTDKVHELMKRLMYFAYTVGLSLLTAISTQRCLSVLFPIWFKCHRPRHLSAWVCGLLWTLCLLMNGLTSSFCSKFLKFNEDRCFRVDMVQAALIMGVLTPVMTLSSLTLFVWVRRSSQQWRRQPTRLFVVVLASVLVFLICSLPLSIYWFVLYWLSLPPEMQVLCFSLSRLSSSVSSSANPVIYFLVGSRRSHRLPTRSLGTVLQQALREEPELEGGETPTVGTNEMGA

The structures appear in SMILES notation. Where only a bound is given, the exact number is not on record here.

The IC50 is the concentration at which inhibition is half-maximal. High values mean weaker potency, low ones greater potency.

Turning to `O=C(Nc1cnn(C2CC2)c1)c1nnn(-c2ccc(-c3ccccc3)cc2)c1C1CC1` [Compound 14-87], the IC50 was more than 3000 nM. As to `COc1ccc(-c2cccc(-n3nnc(C(=O)Nc4ccncc4)c3C3CC3)c2)c(C)c1` [Compound 7-287], the IC50 fell in the range of 1000 to 3000 nM.

As to `Cc1ccc(CNC(=O)c2nnn(-c3ccc(-c4ccc(C#N)cc4)cc3)c2C2CC2)cn1` [Compound 15-3], the IC50 is 500 to 1000 nM. Under `O=C(Nc1ncnc2[nH]ncc12)c1nnn(-c2ccc(-c3ccccc3)cc2)c1C1CC1` [Compound 14-53] stands 1000 to 3000 nM. Under `CC(NC(=O)c1nnn(-c2ccc(-c3ccccc3)cc2)c1C1CC1)c1cnn(C(C)(C)C)c1` (centres unmarked) [Compound 14-43] stands 1000 to 3000 nM; under `CC(C)c1c(C(=O)Nc2ccncc2)nnn1-c1ccc(-c2cnn(C)c2)cc1` [Compound 17-27], 500 to 1000 nM.

In turn, `Cc1c(-c2ccc(-n3nnc(C(=O)Nc4ccncc4)c3C3CC3)cc2)c(C#N)nn1C` [Compound 7-120] yielded an IC50 of 500 to 1000 nM. Compound `CC(NC(=O)c1nnn(-c2ccc(-c3ccc(CC#N)cc3)cc2)c1C1CC1)c1cnn(C)c1` (centres unmarked) [Compound 15-9] came in with an IC50 of more than 3000 nM. Under `O=C(Nc1ccncc1)c1nnn(-c2ccc(-c3ccccc3F)cc2)c1C1CC1` [Compound 7-129] stands 500 to 1000 nM. Under `O=C(Nc1ccncc1)c1nnn(-c2ccc(-c3n[nH]c4c3CCCC4)cc2)c1C1CC1` [Compound 7-94] stands 100 to 500 nM; under `CC(C)n1nccc1-c1ccc(-n2nnc(C(=O)Nc3ccncc3)c2C2CC2)cc1` [Compound 7-106], 100 to 500 nM. The compound `CCn1cc(NC(=O)c2nnn(-c3ccc(-c4ccccc4)cc3)c2C2CC2)cn1` [Compound 14-45] showed a half-inhibitory concentration (IC50) of 1000 to 3000 nM. On to `Cc1cc(NC(=O)c2nnn(-c3ccc(-c4c(C)nn5ccccc45)cc3)c2C(C)C)ccn1` [Compound 10-12], for which the IC50 lay in the range of 100 to 500 nM.

In turn, `Cc1nn(C)c(C)c1-c1ccc(-n2nnc(C(=O)NCc3cccnc3)c2C(C)C)cc1` [Compound 17-22] displayed an IC50 of 100 to 500 nM. `O=C(Nc1ccncc1)c1nnn(-c2ccc(-c3cncs3)cc2)c1C1CC1` [Compound 7-187] showed a half-maximal inhibitory concentration (IC50) of 1000 to 3000 nM. As for `COc1cc(NC(=O)c2nnn(-c3ccc(-c4ccccc4)cc3)c2C2CC2)cc(C)n1` [Compound 14-23], the figure is 500 to 1000 nM; as for `Cc1ccc(CNC(=O)c2nnn(-c3ccc(-c4c(C)nn(C)c4C)cc3F)c2C2CC2)cn1` [Compound 21-1, 5-cyclopropyl-1-(2-fluoro-4-(1,3,5-trimethyl-1H-pyrazol-4-yl)phenyl)-N-((6-methylpyridin-3-yl)methyl)-1H-1,2,3-triazole-4-carboxamide], less than 100 nM; as for `Cc1nn(C)c(C)c1-c1ccc(-n2nnc(C(=O)Nc3ccccc3)c2C(C)C)cc1` [Compound 17-16], 100 to 500 nM. Under `CC(C)n1cc(CNC(=O)c2nnn(-c3ccc(-c4ccccc4)cc3)c2C2CC2)cn1` [Compound 14-32] stands 1000 to 3000 nM; under `CCn1cc(CNC(=O)c2nnn(-c3ccc(-c4ccc(CC#N)cc4)cc3)c2C2CC2)cn1` [Compound 17-5], 100 to 500 nM. Under `O=C(Nc1ccncc1)c1nnn(-c2ccc(-c3cc[nH]n3)cc2)c1C1CC1` [Compound 7-41] stands 100 to 500 nM; under `CCn1nc(C)c(-c2ccc(-n3nnc(C(=O)NCc4ccc(C)nc4)c3C3CC3)cc2)c1C` [Compound 9-10], 100 to 500 nM; under `C#Cc1cccc(-c2ccc(-n3nnc(C(=O)Nc4ccncc4)c3C3CC3)cc2)c1` [Compound 7-136], 500 to 1000 nM. The compound `Cc1cc(NC(=O)c2nnn(-c3ccc(-c4ccc(C#N)cc4)cc3OC(F)(F)F)c2C2CC2)ccn1` [Compound 7-53] came in with an IC50 of 100 to 500 nM. `CCn1nc(C)c(-c2ccc(-n3nnc(C(=O)Nc4ccnc(C)c4)c3C3CC3)cc2)c1C` [Compound 9-1, 5-cyclopropyl-1-(4-(1-ethyl-3,5-dimethyl-1H-pyrazol-4-yl)phenyl)-N-(2-methylpyridin-4-yl)-1H-1,2,3-triazole-4-carboxamide] showed a 50% inhibitory concentration (IC50) of less than 100 nM. As for `Cc1oncc1-c1ccc(-n2nnc(C(=O)Nc3ccncc3)c2C2CC2)cc1` [Compound 7-45], the figure is 100 to 500 nM; as for `Cn1nc(C2CC2)cc1-c1ccc(-n2nnc(C(=O)Nc3ccncc3)c2C2CC2)cc1` [Compound 7-109], 100 to 500 nM.

Consider `Cc1cc(-c2ccc(-n3nnc(C(=O)Nc4ccncc4)c3C3CC3)cc2)c(C)s1` [Compound 7-121], for which the IC50 was in the range of 500 to 1000 nM. Under `O=C(Nc1ccncc1)c1nnn(-c2ccc(-c3cccc(C4CCCCC4)c3)cc2)c1C1CC1` [Compound 7-166] stands 1000 to 3000 nM; under `Cc1nn(C)c(C)c1-c1ccc(-n2nnc(C(=O)Nc3ccncc3)c2C2CC2)c(C#N)c1` [Compound 7-267], 500 to 1000 nM; under `Cn1cnc(-c2ccc(-n3nnc(C(=O)Nc4ccncc4)c3C3CC3)cc2)c1` [Compound 7-124], 500 to 1000 nM. Under `CC(NC(=O)c1nnn(-c2ccc(-c3ccc(C#N)c(F)c3)cc2)c1C1CC1)c1ccn(C)n1` (centres unmarked) [Compound 15-7] stands 1000 to 3000 nM.

In turn, `CCn1nc(C)c(-c2ccc(-n3nnc(C(=O)NCc4cnccc4C)c3C3CC3)cc2)c1C` [Compound 9-23] yielded a 50% inhibitory concentration (IC50) of 100 to 500 nM. As for `NS(=O)(=O)c1ccc(-c2ccc(-n3nnc(C(=O)Nc4ccncc4)c3C3CC3)cc2)cc1` [Compound 7-141], the figure is 500 to 1000 nM; as for `CC(C)c1c(C(=O)NC2(c3cccnc3)CC2)nnn1-c1ccc(-c2ccc(C#N)cc2)cc1` [Compound 17-32], 1000 to 3000 nM.

`O=C(Nc1ccncc1)c1nnn(-c2ccc(-c3cnn(C4CCC4)c3)cc2)c1C1CC1` [Compound 7-62] registered an IC50 of 100 to 500 nM.

Turning to `CC(=O)c1ccc(-c2ccc(-n3nnc(C(=O)Nc4ccncc4)c3C3CC3)cc2)cc1` [Compound 7-49], the IC50 was 100 to 500 nM. Compound `O=C(Nc1ccncc1)c1nnn(-c2ccc(-c3cncnc3)cc2)c1C1CC1` [Compound 7-203] came in with an IC50 of 1000 to 3000 nM. For `Cc1ncccc1CNC(=O)c1nnn(-c2ccc(-c3ccc(C#N)c(F)c3)cc2)c1C1CC1` [Compound 16-1, 1-(4′-cyano-3′-fluoro-[1,1′-biphenyl]-4-yl)-5-cyclopropyl-N-((2-methylpyridin-3-yl)methyl)-1H-1,2,3-triazole-4-carboxamide], the IC50 was less than 100 nM. As for `COc1ccc(-c2cccc(-n3nnc(C(=O)Nc4ccncc4)c3C3CC3)c2)cc1F` [Compound 7-303], the 50% inhibitory concentration (IC50) lay within 1000 to 3000 nM. Under `O=C(Nc1ccncc1)c1nnn(-c2ccc(-c3ccccc3C(F)(F)F)cc2)c1C1CC1` [Compound 7-169] stands 1000 to 3000 nM. Compound `Cc1cc(-n2nnc(C(=O)Nc3ccncc3)c2C2CC2)ccc1-c1c(C)nn(C)c1C` [Compound 7-271] yielded an IC50 of 500 to 1000 nM.

As for `Cc1cc(NC(=O)c2nnn(-c3ccc(-c4ccccc4)c(F)c3)c2C2CC2)ccn1` [Compound 7-205], the IC50 lay in the range of 1000 to 3000 nM. Under `O=C(Nc1cnn(C(F)(F)F)c1)c1nnn(-c2ccc(-c3ccccc3)cc2)c1C1CC1` [Compound 14-80] stands more than 3000 nM; under `O=C(Nc1ccncc1)c1nnn(-c2cc3ccccc3o2)c1C1CC1` [Compound 4-1], more than 3000 nM.

For `CC(C)Oc1cccc(-c2ccc(-n3nnc(C(=O)Nc4ccncc4)c3C3CC3)cc2)c1` [Compound 7-148], the IC50 was 500 to 1000 nM. In turn, `N#CCc1ccccc1-c1ccc(-n2nnc(C(=O)Nc3ccncc3)c2C2CC2)cc1` [Compound 7-154] registered an IC50 of 500 to 1000 nM. Under `Cc1nn(C(F)F)cc1-c1ccc(-n2nnc(C(=O)Nc3ccncc3)c2C2CC2)cc1` [Compound 7-118] stands 500 to 1000 nM; under `CCn1cc(CNC(=O)c2nnn(-c3ccc(-c4c(C)nn(CC)c4C)cc3)c2C2CC2)cn1` [Compound 9-11], 100 to 500 nM. Under `N#Cc1ccc(-c2ccc(-n3nnc(C(=O)Nc4ccncc4)c3C3CC3)cc2)cc1F` [Compound 7-22] stands 100 to 500 nM; under `Cn1ncc(C#N)c1-c1ccc(-n2nnc(C(=O)Nc3ccncc3)c2C2CC2)cc1` [Compound 7-188], 1000 to 3000 nM. In turn, `Cc1cc(NC(=O)c2nnn(-c3ccc(-c4ccc(C#N)cc4)nc3)c2C2CC2)ccn1` [Compound 7-242] had an IC50 of 500 to 1000 nM. For `CC(=O)c1ccc(-c2ccc(-n3nnc(C(=O)Nc4ccncc4)c3C3CC3)cc2)c(F)c1` [Compound 7-75], the IC50 was in the range of 100 to 500 nM. In turn, `CC(C)n1nc(C(F)(F)F)cc1-c1ccc(-n2nnc(C(=O)Nc3ccncc3)c2C2CC2)cc1` [Compound 7-157] displayed a half-maximal inhibitory concentration (IC50) of 500 to 1000 nM. With `CC(C)c1c(C(=O)NC2(c3cccnc3)CC2)nnn1-c1ccc(-c2ccc(C#N)c(F)c2)cc1` [Compound 18-26], the IC50 lay in the range of 1000 to 3000 nM. Under `N#Cc1ccc(-c2ccc(-n3nnc(C(=O)NC4(c5cccnc5)CC4)c3C3CC3)cc2)cn1` [Compound 18-8] stands 1000 to 3000 nM.

`Cc1ccc(-n2nnc(C(=O)Nc3ccncc3)c2C2CC2)c(C(F)(F)F)c1` [Compound 4-6] showed an IC50 of 1000 to 3000 nM. Under `O=C(Nc1ccncc1)c1nnn(-c2ccc(-c3ccc(C(F)F)cc3)cc2)c1C1CC1` [Compound 7-28] stands 100 to 500 nM. On to `Cc1cnn(C)c1-c1ccc(-n2nnc(C(=O)Nc3ccncc3)c2C2CC2)cc1` [Compound 7-73], for which the IC50 lay in the range of 100 to 500 nM. Under `CC(C)C(=O)c1ccc(-c2ccc(-n3nnc(C(=O)Nc4ccncc4)c3C3CC3)cc2)cc1` [Compound 7-74] stands 100 to 500 nM; under `N#CCc1ccc(-c2cccc(-n3nnc(C(=O)NC4(c5cccnc5)CC4)c3C3CC3)c2)cc1` [Compound 18-21], 1000 to 3000 nM. As for `O=C(Nc1ccncc1)c1nnn(-c2ccc(-c3ccccc3)cc2Cl)c1C1CC1` [Compound 4-13], the figure is 500 to 1000 nM; as for `O=C(Nc1ccncc1)c1nnn(-c2ccc(-c3ccc(C(F)(F)F)cc3)cc2)c1C1CC1` [Compound 7-66], 100 to 500 nM.

The compound `Cc1ccc(-n2nnc(C(=O)Nc3cc(F)nc(F)c3)c2C2CC2)cc1` [Compound 1-5] displayed a concentration for half-maximal inhibition (IC50) of 500 to 1000 nM. The compound `CC(NC(=O)c1nnn(-c2ccc(-c3ccccc3)cc2)c1C1CC1)c1cnn(C)c1` (centres unmarked) [Compound 14-75] returned an IC50 of more than 3000 nM.
